The record followed here is US9180217B2, “Sterilization system and device” (priority 2004, dated 2015).

The test system of this assay is bacillus stearothemophilus spores. In words: Spore studies in NO and NO2 (BI disks in TYVEK pouches, glass vessel). The note with it: Exp Time 10 min. It counts as cell-based. Here is the method:
The experiments are conducted in glass vessels in which gases can be metered in exact amounts. The tests were conducted using biological indicators made of stainless steel disks inoculated with 10^6 bacillus stearothemophilus spores. The BI disks are heat-sealed in individual TYVEK sterilization pouches and placed in a glass vessel. The vessel is filled with various mixtures of gases following specific protocols for the order and timing of gas introduction.
In one protocol, the glass vessel is evacuated to 3″ Hg absolute. Either NO or NO2, as the sterilant gas, is added in an amount that corresponds to a 5% concentration (by volume) when the vessel is completely filled with sterilant gas and diluent gas. After 5 minutes, either air or nitrogen was added to the vessel until atmospheric pressure is reached. The BI is exposed to the air or nitrogen for 10 minutes. Thereafter, the BIs, in their pouches, are removed from the vessel and taken to a microbiological hood. The biological indicators are removed from the pouches and placed in tubes with sterile tryptic soy broth, incubated at from about 55 to about 60° C., and monitored for growth.

Structures are written as SMILES.

Consider `[O]N=O` [NO2, nitrogen dioxide], for which the “spore condition (Dead/Live)” value is “Dead” (5% in Air with Humidity Chip) and “Dead” (5% in N2 with Humidity Chip).
